Reference: the supplement of paper PMC8253809

Experiments:
[1] = system: HABS (astrocyte control); experiment: maximal growth inhibition (yFin) relative to DMSO / staurosporine; higher = more efficacious
How it was run: (§1)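 Treatment used a pin tool and a 10-point threefold dilution series, mean top concentration 35 μM, run in triplicate on patient-derived pHGG/DIPG cell lines and astrocyte controls in 1% Geltrex-coated 384-well plates. Plates were kept at 37 °C, 5% CO2 for 7 days (iAstro: 3 days). Log2-transformed CellTiter-Glo luminescence was scaled per plate to % activity between negative (solvent) and positive control wells and pooled before fitting. EC50 and maximal response (yFin) came from the three- or four-parameter log-logistic fit chosen by lowest AICc.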

[2] = system: HGGX6 (H3.3 G34R paediatric high-grade glioma line); experiment: as above
How it was run: as §1

[3] = system: SUDIPGXVII (diffuse intrinsic pontine glioma line); experiment: as above
How it was run: as §1

[4] = system: SUDIPGXIII (diffuse intrinsic pontine glioma line); experiment: EC50 (inflection of fitted growth-inhibition curve) (log10 M)
How it was run: as §1

[5] = system: DIPGX7 (H3.3 K27M diffuse intrinsic pontine glioma line); experiment: as above
How it was run: as §1

[6] = system: SUDIPGXIX (diffuse intrinsic pontine glioma line); experiment: as above
How it was run: as §1

[7] = system: DIPGX29 (H3.3 K27M diffuse intrinsic pontine glioma line); experiment: as above
How it was run: as §1

[8] = system: DIPGX9 (diffuse intrinsic pontine glioma line); experiment: as above
How it was run: as §1

[9] = system: HGGX42 (H3.3 G34R paediatric high-grade glioma line); experiment: as above
How it was run: as §1

[10] = system: SUDIPGXXI (diffuse intrinsic pontine glioma line); experiment: as above
How it was run: as §1

[11] = system: HABS; experiment: as above
How it was run: as §1

[12] = system: HGGX39 (paediatric high-grade glioma line); experiment: as above
How it was run: as §1

[13] = system: HGGX2 (paediatric high-grade glioma line); experiment: as above
How it was run: as §1

[14] = system: iAstro (astrocyte control); experiment: as above
How it was run: as §1

[15] = system: SUDIPGIV (diffuse intrinsic pontine glioma line); experiment: as above
How it was run: as §1

[16] = system: HGGX6; experiment: as above
How it was run: as §1

[17] = system: DIPGX37 (H3.3 K27M diffuse intrinsic pontine glioma line); experiment: as above
How it was run: as §1

[18] = system: SUDIPGXVII; experiment: as above
How it was run: as §1

[19] = system: SUDIPGVI (diffuse intrinsic pontine glioma line); experiment: as above
How it was run: as §1

Row | Structure (SMILES) | maximal growth inhibition [1] [%] | maximal growth inhibition [2] [%] | maximal growth inhibition [3] [%] | EC50 (log10 M) [4] | EC50 (log10 M) [5] | EC50 (log10 M) [6] | EC50 (log10 M) [7] | EC50 (log10 M) [8] | EC50 (log10 M) [9] | EC50 (log10 M) [10] | EC50 (log10 M) [11] | EC50 (log10 M) [12] | EC50 (log10 M) [13] | EC50 (log10 M) [14] | EC50 (log10 M) [15] | EC50 (log10 M) [16] | EC50 (log10 M) [17] | EC50 (log10 M) [18] | EC50 (log10 M) [19]
1 | CC(=O)c1cc([N+](=O)[O-])c(Sc2ccc(F)cc2F)s1 | 37.7 | 104 | 74.3 | -4.72 | -4.76 | -4.78 | -4.83 | -4.77 | -4.68 | -4.78 | -4.7 | -4.79 | -4.59 | -4.85 | -4.71 | -4.65 | -4.79 | -4.75 | -4.76
2 | CC(C)(C)c1cnc(CSc2cnc(NC(=O)C3CCNCC3)s2)o1 | 45.9 | 83.9 | 95.8 | -5.95 | -5.84 | -6.11 | -6.2 | -6.71 | -6.48 | -6.91 | -6.64 | -6.02 | -6.28 | -6.22 | -6.15 | -5.8 | -6.21 | -6.08 | -6.37
3 | CC(C)c1c2cc(-c3ccnc(NC4CCC(NC5CCOCC5)CC4)n3)ccc2nn1C (stereo unspecified) | 44.3 | 78 | 89.7 | -6.79 | -6.89 | -7.04 | -6.63 | -7.17 | -7.07 | -7.19 | -7.04 | -6.34 | -6.63 | -7.45 | -6.83 | -6.69 | -6.77 | -6.93 | -7
4 | CC(C)c1cc(C(=O)N2Cc3ccc(CN4CCN(C)CC4)cc3C2)c(O)cc1O | 108 | 34.9 | 67.2 | -6.14 | -5.07 | -6.98 | -5.68 | -6.96 | -5.89 | -6.4 | -6.06 | -6.08 | -6.72 | -7.01 | -6.68 | -6.73 | -6.85 | -6.44 | -5.95
5 | COc1cc(F)ccc1-c1ncnc(Nc2cccc(CS(C)(=N)=O)c2)n1 (stereo unspecified) | 56.8 | 84.1 | 94.9 | -4.98 | -5.15 | -5.55 | -5.41 | -5.9 | -6.01 | -5.99 | -5.83 | -5.23 | -5.75 | -6.51 | -5.38 | -5.44 | -5.68 | -5.15 | -5.33
6 | Cc1ccc2nc(NCCN)c3ncc(C)n3c2c1 | 58.1 | 81.8 | 88.5 | -4.89 | -4.87 | -4.93 | -4.95 | -5.01 | -5 | -5.23 | -4.94 | -4.91 | -5.19 | -5.39 | -4.93 | -4.92 | -4.96 | -4.88 | -4.96
7 | O=C(c1ccccc1)c1ccc2nc(NC(=O)c3csc(C4CCN(c5ncnc6ccsc56)CC4)n3)[nH]c2c1 | 35.8 | 36 | 28.2 | -5.72 | -5.45 | -4.95 | -5.26 | -5.03 | -5.14 | -5.2 | -5.18 | -5.87 | -5.06 | -5.2 | -5.86 | -5.19 | -5.87 | -5.91 | -5.46
8 | c1ccc2c(-c3cnn4cc(-c5ccc(N6CCNCC6)cc5)cnc34)ccnc2c1 | 108 | 92.8 | 107 | -5.56 | -5.63 | -5.66 | -5.73 | -5.68 | -5.68 | -6.41 | -5.19 | -5.65 | -5.78 | -5.51 | -5.52 | -5.58 | -5.65 | -5.61 | -5.58
9 | COc1ccc(C[C@H](NC(=O)[C@H](C)NC(=O)CN2CCOCC2)C(=O)N[C@@H](Cc2ccccc2)C(=O)C2(C)CO2)cc1 (stereo in doubt) [ONX-0914] | 94.2 | 92.2 | 91.8 | -6.56 | -6.25 | -6.58 | -6.14 | -6.6 | -6.73 | -7.49 | -6.19 | -6.36 | -7.17 | -7.31 | -6.84 | -5.97 | -6.53 | -5.91 | -6.72
10 | CN(C)C/C=C/C(=O)Nc1cc2c(Nc3ccc(F)c(Cl)c3)ncnc2cc1O[C@H]1CCOC1 [AFATINIB] | 101 | 93.5 | 109 | -4.71 | -4.85 | -4.83 | -4.73 | -4.88 | -4.86 | -5.4 | -4.84 | -4.73 | -4.92 | -4.88 | -4.82 | -4.75 | -4.72 | -4.81 | -4.84
11 | O=C(Nc1c[nH]nc1-c1nc2ccc(CN3CCOCC3)cc2[nH]1)NC1CC1 [AT9283] | 94 | 97.8 | 102 | -4.79 | -4.88 | -5.33 | -5.17 | -5.66 | -5.4 | -6.69 | -5.83 | -6.03 | -4.91 | -5.54 | -5.66 | -5.15 | -4.79 | -4.95 | -4.97
12 | CC(=O)OC[C@H]1O[C@@H]([S-])[C@H](OC(C)=O)[C@@H](OC(C)=O)[C@@H]1OC(C)=O.CCP(CC)CC.[Au+] [AURANOFIN] | 113 | 92.2 | 117 | -5.39 | -5.9 | -5.93 | -6.49 | -5.78 | -6.16 | -6.66 | -5.29 | -5.52 | -6.28 | -5.84 | -5.57 | -6.35 | -6.41 | -5.45 | -5.76
13 | COC(=O)[C@]12CCC(C)(C)C[C@H]1[C@H]1C(=O)C=C3[C@@]4(C)C=C(C#N)C(=O)C(C)(C)[C@@H]4CC[C@@]3(C)[C@]1(C)CC2 [BARDOXOLONE METHYL] | 105 | 86.8 | 109 | -5.62 | -5.56 | -5.53 | -6.17 | -5.73 | -5.83 | -6.24 | -5.66 | -6.01 | -5.74 | -5.99 | -5.65 | -5.93 | -6.09 | -5.59 | -5.63
14 | CC(C)(C)OC(=O)Nc1ccc(-c2cc(C(=O)NCCCCCCC(=O)NO)no2)cc1 [BML-281] | 74.1 | 52.9 | 58.3 | -4.89 | -4.92 | -5 | -5.53 | -5.48 | -5.45 | -6.1 | -4.89 | -4.94 | -5.43 | -5.37 | -5.19 | -5.04 | -5.46 | -5.09 | -4.92
15 | CC(C)C[C@H](NC(=O)[C@H](CCc1ccccc1)NC(=O)CN1CCOCC1)C(=O)N[C@@H](Cc1ccccc1)C(=O)N[C@@H](CC(C)C)C(=O)[C@@]1(C)CO1 [CARFILZOMIB] | 108 | 91.3 | 105 | -5.36 | -7.29 | -6.53 | -5.73 | -7 | -6.77 |  | -6.6 | -6.2 | -7.54 | -8.68 | -7.24 | -6.37 | -6.68 | -6.36 | -6.71
16 | CC(=O)c1ccc2c(c1)c1cc(C(C)=O)ccc1n2CCNC(C)C [CBL-0137] | 74.4 | 88.7 | 97.5 | -5.14 | -5.22 | -6.28 | -5.42 | -6.06 | -5.67 | -6.51 | -6.08 | -5.42 | -5.6 | -6.54 | -5.61 | -5.37 | -5.98 | -5.23 | -5.09
17 | O=C(Nc1ccc(Nc2nccc(Nc3cc(C4CCCC4)[nH]n3)n2)cc1)Nc1cccc(C(F)(F)F)c1 [CD532] | 122 | 87.6 | 100 | -6.36 | -6.51 | -6.52 | -6.34 | -6.65 | -6.66 | -7.24 | -5.37 | -5.92 | -6.21 | -6.36 | -6.47 | -6.3 | -6.42 | -6.47 | -6.5
18 | NC1CCC(Nc2cc(-c3cccc(NCc4cccc(F)c4)n3)c(Cl)cn2)CC1 (stereo unspecified) [CDK9-IN-2] | 98.5 | 67.1 | 87 | -5.75 | -6.76 | -6.93 | -6.87 | -7.13 | -7 | -7.4 | -5.73 | -5.75 | -5.72 | -5.35 | -6.76 | -6.96 | -6.76 | -6.67 | -6.92
19 | C[C@@H](Oc1cc(-c2cnn(C3CCNCC3)c2)cnc1N)c1c(Cl)ccc(F)c1Cl [CRIZOTINIB] | 90.9 | 88.6 | 96.4 | -4.81 | -4.88 | -5.23 | -4.83 | -5.11 | -5.15 | -5.77 | -4.84 | -4.69 | -5.11 | -4.89 | -4.85 | -4.67 | -4.84 | -4.9 | -5.01
20 | CCCc1cc(C)[nH]c(=O)c1CNC(=O)c1cc(-c2ccnc(N3CCN(C)CC3)c2)cc2c1cnn2C(C)C [GSK343] | 69 | 111 |  | -4.57 | -4.63 | -4.69 | -4.6 | -4.74 | -4.7 | -4.81 | -4.81 | -4.59 | -4.78 | -4.88 | -4.69 | -4.6 | -4.59 |  | -4.59
21 | COc1ncc(-c2ccc3nccc(-c4ccnnc4)c3c2)cc1NS(=O)(=O)c1ccc(F)cc1F [OMIPALISIB] | 101 | 110 | 111 | -5.65 |  | -7 | -5.88 | -7.52 | -6.22 | -7.11 | -6.58 | -5.79 | -6 | -5.44 | -6.11 | -4.77 | -6.38 | -6.19 | -6.23
22 | CCOc1cc(C(C)(C)C)ccc1C1=N[C@@](C)(c2ccc(Cl)cc2)[C@@](C)(c2ccc(Cl)cc2)N1C(=O)N1CCN(CCCS(C)(=O)=O)CC1 [RG7112] | 108 | 86.4 | 102 | -4.75 | -4.82 | -5.56 | -4.8 | -5.7 | -4.64 | -6.49 | -5.4 | -4.85 | -4.78 | -4.85 | -4.86 | -4.71 |  | -4.8 | -4.87
23 | C=CCNC1=C2C[C@@H](C)C[C@H](OC)[C@H](O)[C@@H](C)/C=C(\C)[C@H](OC(N)=O)[C@@H](OC)/C=C\C=C(/C)C(=O)NC(=CC1=O)C2=O [TANESPIMYCIN] | 114 | 33.9 | 74.7 | -4.95 |  | -6.32 | -5.85 | -6.85 | -6.01 | -5.76 | -5.41 | -6.48 | -4.97 | -5.41 | -5.88 | -5.84 | -6.99 | -4.99 | -5.19
